Several values for one entry are separate records, joined by “and”; a condition that tells them apart may be missing. Equal values may be shown once. Read-outs that look alike come from different tables or passages of the source.
What was measured:
[1] = cited from earlier work
SARS-CoV-2 virus [2] = test: Reconstituted human respiratory epithelium of nasal origin (MucilAir HAE) infected with SARS-CoV-2, viral genome RT-PCR; type: cell-based; details: alone or combined
Experimental: In order to produce the infections, we have also used a reconstituted human epithelium model (HAE MucilAir, Epithelix), obtained from primary human cells obtained by nasal biopsies, cultivated at the air-liquid interface with a specific culture medium in Costar Transwell inserts (Corning, NY, USA). For the infection experiments, the apical poles were gently washed twice using the medium OptiMEM (Gibco, ThermoFisher Scientific), then infected with 150 µl of virus dilution in medium OptiMEM, with a multiplicity of infection (MOI) of 0.1. After incubation for one hour at 37° C., 5% CO2, the viral suspension was withdrawn.
A quantitative “one-step” PCR was performed using the StepOnePlus Real Time PCR System kit (Applied Biosystems), with the reagent EXPRESS One-Step Superscript qRT-PCR (Invitrogen), in a reaction volume of 20 µl containing 10 µl of supermix Express qPCR (2×), 1 µl of each primer (10 µM), […], 0.4 µl Rox dye (25 µM) and 2 µl of viral RNA.
The following program was used: 15 minutes at 50° C., followed by 40 cycles (15 s 95° C.; 1 min 60° C.).
Reconstituted human respiratory epithelia of nasal origin and cultivated at the air-liquid interface (MucilAir® HAE, Epithelix) were infected with SARS-CoV-2 (MOI 0.1). The basal medium was treated once per day by the following molecules, in simple or combination treatment: • diltiazem (45 or 90 µM), • remdesivir (20 or 40 µM) and • berberine (4 µM) for 48 or 72 hours post-infection.
At various times, the epithelia were harvested and lysed. The total RNA was extracted and the viral genomes were quantified by RT-PCR by normalising the data using the quantification of the product of a cellular gene (GAPDH).

SARS-CoV-2 virus [3] = test: Vero E6 cells infected by SARS-CoV-2, viral infectious titre in culture supernatant; type: cell-based; details: monotherapy
Experimental: The viral production relative to each of the concentrations of molecules has been determined and is shown with respect to the viral production from infected cells or HAE under the same conditions but untreated. The median inhibitory concentrations (IC50) were determined for each treatment condition.
The Vero E6 (ATCC CRL-1586) cells were cultivated in medium DMEM 4.5 g/l of glucose, supplemented by L-glutamine and penicillin/streptomycin and 10% inactivated foetal calf serum, at 37° C., 5% CO2.
In order to produce the infections, the cells were rinsed twice by the medium without serum and were covered by a minimum volume containing a dilution of virus, this dilution being determined from the infectious titre (cf. section on determination of the infectious titre), in order to obtain an adequate multiplicity of infection (MOI). After incubation for one hour in the presence of a minimum volume, the medium was replaced by the medium DMEM 4.5 g/l of glucose, supplemented by L-glutamine and penicillin/streptomycin and 2% inactivated foetal calf serum, and the cells were incubated again at 37° C., 5% CO2.
The determination of the infectious titre was performed using a limited dilution technique, on these Vero E6 cells on a 96-well plate. A volume of 50 µl of series dilutions was deposited in the wells in quadruplicates. The cells were then incubated at 37° C., 5% CO2 and the presence of cytopathic effects is then monitored after 3 days of infection. The infectious dose in tissue culture 50% (DICT50/ ml), i.e. the viral titre required to form an infection in 50% of inoculated cells, was calculated using the technique of Reed and Muench.
Vero E6 cells infected by SARS-CoV-2 (MOI 0.1) were treated at one hour post-infection by increasing concentrations of: • diltiazem (2.8 to 45 µM), • berberine (1.6 to 25 µM), and • remdesivir (0.6 to 10 µM), alone (FIG. 1) and in combination (FIG. 2).
For each of the combined treatments tested, a dose of one of the molecules was fixed and combined with increasing concentrations of the other molecule (same concentration ranges as those used in monotherapy, respectively) and vice versa. The viral infectious titres measured in the culture supernatants of the infected cells (sampled at 48 and 72 hours post-infection) reflect the level of viral replication measured under the various treatment conditions.

coronavirus SARS-CoV-2 = type: cell-based
[4] = system: SARS-CoV-2 (Wuhan-like strain); test: IC50 of diltiazem on SARS-CoV-2 in A549-ACE2 cells, RT-PCR; type: cell-based; details: Severe acute respiratory syndrome coronavirus 2; A549-ACE2, MOI 10^-1, treated 1 hpi, 72 hours after infection
Experimental: The experimental protocol is the following: • Seeding of the A549-ACE2 cells, • 24 hours after infection of A549-ACE2 cells with a Wuhan-like strain of SARS-CoV-2 (MOI 10^-1), • 1 hour post infection (pi), the cells are treated with diltiazem at different concentrations. • The supernatants are sampled at 72 hours after the infection for a viral quantification by RT-PCR.
The IC50 is the median inhibitory concentration, i.e. the quantity of diltiazem necessary to obtain 50% inhibition of the viral replication of the tested SARS-CoV-2 strain.

[5] = system: SARS-CoV-2 (Wuhan-like strain); test: A549-ACE2 cells infected with SARS-CoV-2, viral titre in supernatant over time by RT-PCR; type: cell-based; details: A549-ACE2, MOI 10^-1 and 10^-2, single treatment 1 hpi, diltiazem 45 µM or remdesivir 5 µM, 24-96 hpi
From the text: The cells of the cell line A549 are human alveolar basal epithelial cells derived from adenocarcinoma. This cell line is used as a model for the study of lung cancer, but also as target cells for infectious viruses targeting the respiratory tract. These cells were subsequently modified to express the ACE2 receptor, via which the SARS-CoV-2 virus penetrates into the hosts cells. This cell line A549-ACE2 was obtained from Creative Biogene (USA).
The experimental protocol is the following: • Seeding of the A549-ACE2 cells, • 24 hours after infection of the A549-ACE2 cells with a Wuhan-like strain of SARS-CoV-2 (MOI 10^-1 and 10^-2), • 1 hour post infection (pi), the cells are treated with 45 uM diltiazem. • The supernatants are sampled at 24 hours, 48 hours, 72 hours and 96 hours after the infection for a viral quantification by RT-PCR.
The incubation media used are the following: • Seeding medium: DMEM 1 g/L glucose (Glc), 200 mM L-Glutamine (L-Glu), […] penicillin/streptomycin (P/S), 10% foetal calf serum (FCS) • Infection medium: DMEM 1 g/L Glc, 200 mM L-Glu, 104 U P/S, 0% FCS • Treatment medium: DMEM 1 g/L Glc, 200 mM L-Glu, 104 U P/S, 2% FCS

[6] = Cytotoxicity (CC50) on A549-ACE2 cells, MTS test; type: cell-based; details: human, 72 hours of treatment, read-out: CC50 (cytotoxic concentration 50%)
Experimental: In parallel, the cytotoxicity of diltiazem on A549-ACE2 cells has been verified under the same experimental conditions. For this purpose, the CC50 (cytotoxic concentration 50%), which corresponds to the necessary dose of diltiazem in order to reduce the viability of the cells by half, was measured by monitoring the viability of the A549-ACE2 cells in the presence of various concentrations of diltiazem. The variability was determined by an MTS carried out 72 hours after the start of the treatment.
The MTS test is a colorimetric method: the method is based on the reduction of the compound MTS tetrazolium by viable cells in order to generate a coloured formazan product, enabling the counting of viable cells (coloured) […].

[7] = MOI 0.1, 48 hpi, remdesivir 20 µM, diltiazem 90 µM, berberine 4 µM
[8] = MOI 0.1, 72 hpi, remdesivir 20 µM, diltiazem 90 µM
[9] = MOI 0.1, 72 hpi, remdesivir 40 µM, diltiazem 45 µM
[10] = Severe acute respiratory syndrome coronavirus 2, Vero C1008, Vero E6, MOI 0.01, 48 hpi, read-out: IC50
[11] = Severe acute respiratory syndrome coronavirus 2, Vero C1008, Vero E6, MOI 0.01, 72 hpi, read-out: IC50

| Structure (SMILES) | bioavailability [1] | half-life [1] [h] | Reduction Relative viral production (%) (SARS-CoV-2 virus [2]; [7]) | Reduction Relative viral production (-log10) (SARS-CoV-2 virus [2]; [7]) | IC50 (SARS-CoV-2 virus [3]; Severe acute respiratory syndrome coronavirus 2, Vero C1008, Vero E6, MOI 0.01, 48 hpi) [µM] | IC50 (SARS-CoV-2 virus [3]; Severe acute respiratory syndrome coronavirus 2, Vero C1008, Vero E6, MOI 0.01, 72 hpi) [µM] | IC50 (SARS-CoV-2 virus [3]; Vero E6, MOI 0.01, 72 hpi, read-out: IC50) [µM] | Antiviral action against coronavirus SARS-CoV-2 (coronavirus SARS-CoV-2) | IC50 [4] [µM] | Reduction Relative viral production (%) (SARS-CoV-2 virus [2]; [8]) | Reduction Relative viral production (-log10) (SARS-CoV-2 virus [2]; [8]) | Reduction Relative viral production (%) (SARS-CoV-2 virus [2]; [9]) | Reduction Relative viral production (-log10) (SARS-CoV-2 virus [2]; [9]) | IC50 (SARS-CoV-2 virus [3]; [10]) [µM] | IC50 (SARS-CoV-2 virus [3]; [11]) [µM] | Inhibition of the viral titre in the supernatant over time (% of untreated) [5] | CC50 at 72 h [6] [µM] | Reduction Relative viral production (-log10) (SARS-CoV-2 virus [2]; MOI 0.1, 48 hpi, remdesivir 20 µM, diltiazem 90 µM, berberine 4 µM, listed as remdesivir) |
| --- | --- | --- | --- | --- | --- | --- | --- | --- | --- | --- | --- | --- | --- | --- | --- | --- | --- | --- |
| COc1ccc2cc3[n+](cc2c1OC)CCc1cc2c(cc1-3)OCO2 [Berberine, berberine] | low | ~4 | 86.37 | 0.86 -log10 and 0.8655 -log10 | 17.5 | < 5.6 | 5.6 ± 1.7 | – | – | – | – | – | – | – | – | – | – | – |
| O=c1cc(-c2ccc(O)cc2)oc2cc(O)cc(O)c12 [apigenin] | – | – | – | – | – | – | – | does not have a significant antiviral action | – | – | – | – | – | – | – | – | – | – |
| COc1ccc([C@@H]2Sc3ccccc3N(CCN(C)C)C(=O)[C@@H]2OC(C)=O)cc1.Cl [Diltiazem, diltiazem] | – | – | 55.13 | 0.35 -log10 and 0.348 -log10 | – | – | – | – | 19.7 | 29.37 | 0.15 -log10 and 0.151 -log10 | 31.35 | 0.16 -log10 and 0.1634 -log10 | > 45 | > 45 | same level of inhibition of the viral titre | 374 | – |
| CCC(CC)COC(=O)[C@H](C)N[P@](=O)(OC[C@H]1O[C@@](C#N)(c2ccc3c(N)ncnn23)[C@H](O)[C@@H]1O)Oc1ccccc1 [Remdesivir, remdesivir] | – | – | 100 | more than 7.75 -log10 | – | – | – | – | – | 99.62 | – | 99.5 | 2.3 -log10 and 2.24 -log10 | 0.98 | 0.72 | – | – | 7.351 -log10 |

From US20230210866A1 (priority 2020, published 2023)
